Columns and labels:
[1] = Thermoanalytical studies (TG, DTG, DSC, TEA); assay type: physicochemical
Method: Thermoanalytical investigations were carried out on a Du Pont 990 Thermal Analyser System. TG (Thermogravimetry) DTG (Differential TG) DSC (Differential Scanning Calorimetry) and TEA (Thermal Evolution Analysis) curves of the drug, as well as those of its mechanical mixtures with DIMEB and HP-βCD and the complexes were taken simultaneously.

in vivo = assay: in vivo; parameters: species or system Wistar rats; details: po, 8 mg/kg
Method: The absorption of the complexes of the invention has been evaluated by orally administering an aqueous solution of the composition under examination and measuring by HPLC the Silybinin bile levels. This test has been preferred because it is well known that drugs of the Silymarin kind reach in the bile the highest concentration.
The experiments have been carried out on Wistar rats weighing 180-200 g to which the compositions under examination were administered by gastric intubation. The animals were kept on an empty stomach for 16 hours. The composition to be tested was dissolved in water containing 10% of gum Arabic and were prepared solutions so that each animal was administered,each time with an amount of 5 ml/kg of said solution.
Immediately after the treatment the animals were anaesthetized and operated to check the coledocous duct. A small tube was inserted therein and the bile was collected over a period of 24 hours.
For the analytical determination 1 ml bile was treated as described in the following publication: D. Lorenz et al, Pharmacokinetic Studies with Silymarin in Human Serum and Bile--Meth. and Find.Exptl.Clin.Pharmacol.6(10) 655-661 (1984).
in test A, there were administered 20 mg/kg of Silymarin, according to a known commercial formulation which corresponds to 8 mg/kg of pure Silybinin,
in test B, there were administered 8.79 mg/kg of Silybinin having a HPLC titre of 91%, which corresponds to 8 mg/kg of pure Silybinin, used such as without excipients, […]

[2] = Resorption: excretion of Silybinin in rat bile after intragastric administration, quantitative TLC; parameters: species or system male Wistar SPF rats; details: in vivo, po, 5 mg/kg
Method: In a further experiment the resorption of Silymarin, Silybinin and of the complex of Example 6 was evaluated. For this purpose the excretion of Silybinin in the rat bile was determined in a conventional model experiment. Anesthetized male Wistar SPF rats kept under conventional conditions, were cannulated at the ductus choledochus. After intragastric administration of the test compound (5 mg Silybinin/kg) the bile fluid was collected for 5hr. The Silybinin content in the bile fluid was determined by quantitative thin layer chromatography.

[3] = pH 7.5
Method: Release experiments with Silybinin, Silymarin and the complex of this Example were carried out according to USP XXII, paddle apparatus at pH 7.5 and 37° C.

Molecule: COc1cc(C2Oc3cc(C4Oc5cc(O)cc(O)c5C(=O)C4O)ccc3OC2CO)ccc1O (centres unmarked) [Silybinin]
- temperature at which decomposition of the drug begins ([1]; DSC, FIG. 4, non-complexed Silybinin): about 130 °C
- loss of weight up to 160° C. ([1]; first decomposition step): 4-5%
- start of second decomposition step ([1]; region of the cyclodextrin decomposition): above 250 °C
- 0-24 hr Silybinin in bile per rat (in vivo): 11.9 mcg/rat
- concentration at 24 h (in vivo; rat): 1000 ng/mL
- dose excreted at 24 h (in vivo; rat): 0.6%
- dose excreted at 5 h [2]: 0.21%
- release (solubility) [3]: 0%

Molecule: Silybinin: β-cyclodextrin Inclusion Complex (Molar Ratio 1:1) [Example 1]
- 0-24 hr Silybinin in bile per rat (in vivo): 256.6 mcg/rat
- % excreted Silybinin (in vivo; rat, 1440 min): 11.7%
- Bile 0-24 hr Silybinin level (in vivo; rat, 1440 min): 17.6 µg/mL

Source: patent US5198430A, “Inclusion complexes with silybinin, their preparation and pharmaceutical compositions containing them” (Istituto Biochimico Italiano Giovanni Lorenzini SpA, priority 1989, dated 1993)
